From ChEMBL document CHEMBL1133459, “Adenosine kinase inhibitors. 1. Synthesis, enzyme inhibition, and antiseizure activity of 5-iodotubercidin analogues” (J Med Chem, 2000)

Key:
Rattus norvegicus = species on record: Rattus norvegicus; experiment: Evaluated for antiseizure activity in rat maximal electric shock (MES) seizure model and represented as ED50.; format: functional
Adenosine kinase = Adenosine kinase (Homo sapiens, UniProt P55263); experiment: Inhibition of recombinant human adenosine kinase
Sequence of Adenosine kinase (P55263 whole entry): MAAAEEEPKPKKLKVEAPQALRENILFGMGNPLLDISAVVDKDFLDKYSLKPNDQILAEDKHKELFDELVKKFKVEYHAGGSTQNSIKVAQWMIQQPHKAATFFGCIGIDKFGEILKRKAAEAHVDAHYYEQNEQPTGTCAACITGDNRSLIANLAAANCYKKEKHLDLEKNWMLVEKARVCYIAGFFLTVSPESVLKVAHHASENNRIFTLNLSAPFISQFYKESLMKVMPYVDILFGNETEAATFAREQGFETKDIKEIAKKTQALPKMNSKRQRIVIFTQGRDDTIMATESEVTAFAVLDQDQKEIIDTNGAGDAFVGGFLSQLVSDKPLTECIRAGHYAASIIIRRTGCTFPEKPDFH

Row | IC50 (Adenosine kinase) | SMILES | ED50 (Rattus norvegicus)
1 | – | Nc1ncnc2c1c(I)cn2[C@@H]1O[C@H](CO)[C@@H](O)[C@H]1O [IODOTUBERCIDIN] | 6 mg/kg
2 | 45 nM | CSc1ncnc2c1c(I)cn2[C@@H]1O[C@H](C)[C@@H](O)[C@H]1O | –
3 | 63 nM | [N-]=[N+]=NC[C@H]1O[C@@H](n2cc(Br)c3c(N)ncnc32)[C@H](O)[C@@H]1O | –
4 | 70 nM | CSc1cn([C@@H]2O[C@H](C)[C@@H](O)[C@H]2O)c2ncnc(Cl)c12 | –
5 | 1000 nM | CCCCSc1ncnc2c1c(I)cn2[C@@H]1O[C@H](C)[C@@H](O)[C@H]1O | –
6 | 24 nM | OC[C@H]1O[C@@H](n2cc(I)c3c(Cl)ncnc32)[C@H](O)[C@@H]1O | –
7 | 2000 nM | C[C@H]1O[C@@H](n2cc(I)c3c(SCc4ccc([N+](=O)[O-])cc4)ncnc32)[C@H](O)[C@@H]1O | –
8 | 100 nM | [N-]=[N+]=NC[C@H]1O[C@@H](n2cc(Br)c3c(Cl)ncnc32)[C@H](O)[C@@H]1O | –
9 | – | C[C@H]1O[C@@H](n2cc(I)c3c(N)ncnc32)[C@H](O)[C@@H]1O [5-IODO,5'-DEOXYTUBERCIDIN] | 0.3 mg/kg
10 | 9 nM | [N-]=[N+]=NC[C@H]1O[C@@H](n2cc(I)c3c(Cl)ncnc32)[C@H](O)[C@@H]1O | –
11 | 0.6 nM | NC[C@H]1O[C@@H](n2cc(I)c3c(N)ncnc32)[C@H](O)[C@@H]1O | 7.1 mg/kg
12 | 50 nM | C[C@H]1O[C@@H](n2cc(Br)c3c(Cl)ncnc32)[C@H](O)[C@@H]1O | –
13 | 535 nM | Cc1cn([C@@H]2O[C@H](C)[C@@H](O)[C@H]2O)c2ncnc(Cl)c12 | –
14 | 35 nM | [N-]=[N+]=NC[C@H]1O[C@@H](n2cc(I)c3c(N)ncnc32)[C@H](O)[C@@H]1O | –
15 | 6500 nM | C[C@H]1O[C@@H](n2cc(I)c3c(=S)[nH]cnc32)[C@H](O)[C@@H]1O | –
16 | 60 nM | CC[C@H]1O[C@@H](n2cc(I)c3c(N)ncnc32)[C@H](O)[C@@H]1O | –
17 | 13000 nM | NC[C@H]1O[C@@H](n2ccc3c(N)ncnc32)[C@H](O)[C@@H]1O | –
18 | 100 nM | C=C[C@H]1O[C@@H](n2cc(I)c3c(N)ncnc32)[C@H](O)[C@@H]1O | –
19 | 1350 nM | CSc1cn([C@@H]2O[C@H](C)[C@@H](O)[C@H]2O)c2ncnc(N)c12 | –
20 | 1000 nM | C[C@H]1O[C@@H](n2cc(I)c3c(SCc4ccccc4)ncnc32)[C@H](O)[C@@H]1O | –
21 | 500 nM | CC[C@H]1O[C@@H](n2cc(Br)c3c(N)ncnc32)[C@H](O)[C@@H]1O | –
22 | 1200 nM | CNc1ncnc2c1c(I)cn2[C@@H]1O[C@H](CO)[C@@H](O)[C@H]1O | –
23 | 0.1 nM | NC[C@H]1O[C@@H](n2cc(I)c3c(Cl)ncnc32)[C@H](O)[C@@H]1O | –
24 | 2800 nM | C=CCSc1ncnc2c1c(I)cn2[C@@H]1O[C@H](C)[C@@H](O)[C@H]1O | –
25 | 1200 nM | COC[C@H]1O[C@@H](n2cc(I)c3c(N)ncnc32)[C@H](O)[C@@H]1O | –
26 | 0.2 nM | NC[C@H]1O[C@@H](n2cc(Br)c3c(N)ncnc32)[C@H](O)[C@@H]1O | 4.2 mg/kg
27 | 170 nM | NC[C@H]1O[C@@H](n2cnc3c(N)ncnc32)[C@H](O)[C@@H]1O | –
28 | – | C[C@H]1O[C@@H](n2cc(Br)c3c(N)ncnc32)[C@H](O)[C@@H]1O | < 3.7 mg/kg
29 | 3 nM | C[C@H]1O[C@@H](n2cc(I)c3c(Cl)ncnc32)[C@H](O)[C@@H]1O | –

Row | SMILES | IC50 (Adenosine kinase) | ED50 (Rattus norvegicus)
30 | N#Cc1cn([C@@H]2O[C@H](CO)[C@@H](O)[C@H]2O)c2ncnc(N)c12 [TOYOCAMYCIN] | 310 nM | –
31 | Nc1ncnc2c1c(Br)cn2[C@@H]1O[C@H](CO)[C@@H](O)[C@H]1O | 120 nM | –
32 | C[C@H]1O[C@@H](n2cc(C#N)c3c(N)ncnc32)[C@H](O)[C@@H]1O | 310 nM | –
33 | Nc1ncnc2c1ccn2[C@@H]1O[C@H](CO)[C@@H](O)[C@H]1O [TUBERCIDIN] | 10000 nM | –
34 | Nc1ncnc2c1c(Cl)cn2[C@@H]1O[C@H](CO)[C@@H](O)[C@H]1O | 210 nM | –
